Read-outs that look alike come from different tables or passages of the source.
Target: T1, HCV NS3/4A protease complex, BMS strain (UniProt P27958, C1454S/C1711G, species not given)
T1 construct: other: HCV NS3/4A enzyme assay; class symbols; numeric values; fused on or other part: three-lysine solubilising tail at the C-terminus of NS4A; purified on Ni-NTA from the pET21b vector (His tag implied)
Assay: FRET peptide assay to monitor HCV NS3/4A proteolytic activity (BMS strain)
Format: biochemical, HCV genotype 1a
Details: read-out: IC50 Range, HCV NS3/4A enzyme assay
Excerpt: HCV NS3 protease complexes, derived from the BMS strain, H77 strain or J4L6S strain, were generated, as described below. These purified recombinant proteins were generated for use in a homogeneous assay (see below) to provide an indication of how effective compounds of the present disclosure would be in inhibiting HCV NS3 proteolytic activity.
Serum from an HCV-infected patient was obtained from Dr. T. Wright, San Francisco Hospital. An engineered full-length cDNA (compliment deoxyribonucleic acid) template of the HCV genome (BMS strain) was constructed from DNA fragments obtained by reverse transcription-PCR (RT-PCR) of serum RNA (ribonucleic acid) and using primers selected on the basis of homology between other genotype 1a strains. From the determination of the entire genome sequence, a genotype 1a was assigned to the HCV isolate according to the classification of Simmonds et al. (See P Simmonds, K A Rose, S Graham, S W Chan, F McOmish, B C Dow, E A Follett, P L Yap and H Marsden, J. Clin. Microbiol., 31(6), 1493-1503 (1993)). […] The infectious clones, H77 (1a genotype) and J4L6S (1b genotype) were obtained from R. Purcell (NIH) and the sequences are published in Genbank (AAB67036, see Yanagi, M., Purcell, R. H., Emerson, S. U. and Buldi, J. Proc. Natl. Acad. Sci. U.S.A. 94(16),8738-8743 (1997); AF054247, see Yanagi, M., St Claire, M., Shapiro, M., Emerson, S. U., Purcell, R. H. and Bukh, J, Virology 244 (1), 161-172. (1998)).
NS3/4A protease complex-containing fractions were pooled and loaded on a desalting column Superdex-S200 pre-equilibrated with buffer D (25 mM HEPES, pH 7.5, 20% glycerol, 300 mM NaCl, 0.2% TritonX-100, 10 mM βMB). Sample was loaded at a flow rate of 1 mL/min. NS3/4A protease complex-containing fractions were pooled and concentrated to approximately 0.5 mg/ml. The purity of the NS3/4A protease complexes, derived from the BMS, H77 and J4L6S strains, were judged to be greater than 90% by SDS-PAGE and mass spectrometry analyses. The enzyme was stored at −80° C., thawed on ice and diluted prior to use in assay buffer.
The purpose of this in vitro assay was to measure the inhibition of HCV NS3 protease complexes, derived from the BMS strain, H77 strain or J4L6S strain, as described above, by compounds of the present disclosure. This assay provides an indication of how effective compounds of the present disclosure would be in inhibiting HCV NS3 proteolytic activity.
In order to monitor HCV NS3/4A protease activity, an NS3/4A peptide substrate was used. The substrate was RET S1 (Resonance Energy Transfer Depsipeptide Substrate; AnaSpec, Inc. cat #22991)(FRET peptide), described by Taliani et al. in Anal. Biochem. 240(2):60-67 (1996). The sequence of this peptide is loosely based on the NS4A/NS4B natural cleavage site for the HCV NS3 protease except there is an ester linkage rather than an amide bond at the cleavage site. The peptide also contains a fluorescence donor, EDANS, near one end of the peptide and an acceptor, DABCYL, near the other end. The fluorescence of the peptide is quenched by […] resonance energy transfer (RET) between the donor and the acceptor, but as the NS3 protease cleaves the peptide the products are released from RET quenching and the fluorescence of the donor becomes apparent.
The peptide substrate was incubated with one of the three recombinant NS3/4A protease complexes, in the absence or presence of a compound of the present disclosure. The inhibitory effects of a compound were determined by monitoring the formation of fluorescent reaction product in real time using a Cytofluor Series 4000.
Assay buffer: 50 mM HEPES, pH 7.5; 0.15 M NaCl; 0.1% Triton; 15% Glycerol; 10 mM βME. Substrate: 2 μM final concentration (from a 2 mM stock solution in DMSO stored at −20° C.). HCV NS3/4A protease type 1a (1b), 2-3 nM final concentration (from a 5 μM stock solution in 25 mM HEPES, pH 7.5, 20% glycerol, 300 mM NaCl, 0.2% Triton-X100, 10 mM βME). […]

SMILES | IC50 (numeric values) | IC50 (class symbols)
C=C[C@@H]1C[C@]1(NC(=O)[C@@H]1C[C@@H](Oc2ncc(OC)c3ccc(Cl)cc23)CN1C(=O)C(Nc1ccc(-c2ccccc2)c(OC)c1)C(C)(C)C)C(=O)NS(=O)(=O)C1CC1 (single isomer, unassigned) [Example 18B] | 2.5 µM | –
C=C[C@@H]1C[C@]1(NC(=O)[C@@H]1C[C@@H](Oc2ncc(OC)c3ccc(Cl)cc23)CN1C(=O)[C@@H](Nc1nc(-c2ccc(O)cc2)cs1)C(C)(C)C)C(=O)NS(=O)(=O)C1CC1 [Example 60] | – | 0.001 to 0.02 µM
C=C[C@@H]1C[C@]1(NC(=O)[C@@H]1C[C@@H](Oc2ncc(OC)c3ccc(Cl)cc23)CN1C(=O)[C@@H](Nc1nc(-c2cc(F)ccc2F)cs1)C(C)(C)C)C(=O)NS(=O)(=O)C1CC1 [Example 61] | – | 0.001 to 0.02 µM
C=C[C@@H]1C[C@]1(NC(=O)[C@@H]1C[C@@H](Oc2ncc(OC)c3ccc(Cl)cc23)CN1C(=O)[C@@H](Nc1nc(-c2cc3cc(Cl)ccc3o2)cs1)C(C)(C)C)C(=O)NS(=O)(=O)C1CC1 [Example 62] | – | 0.001 to 0.02 µM
C=C[C@@H]1C[C@]1(NC(=O)[C@@H]1C[C@@H](Oc2ncc(OC)c3ccc(Cl)cc23)CN1C(=O)[C@@H](Nc1nc(-c2ccc(C)c(C)c2)cs1)C(C)(C)C)C(=O)NS(=O)(=O)C1CC1 [Example 63] | – | 0.001 to 0.02 µM
C=C[C@@H]1C[C@]1(NC(=O)[C@@H]1C[C@@H](Oc2ncc(OC)c3ccc(Cl)cc23)CN1C(=O)[C@@H](Nc1nc(-c2ccc(OC)c(F)c2)cs1)C(C)(C)C)C(=O)NS(=O)(=O)C1CC1 [Example 64] | – | 0.001 to 0.02 µM
C=C[C@@H]1C[C@]1(NC(=O)[C@@H]1C[C@@H](Oc2ncc(OC)c3ccc(Cl)cc23)CN1C(=O)[C@@H](Nc1nc(-c2ccc(OCC)cc2)cs1)C(C)(C)C)C(=O)NS(=O)(=O)C1CC1 [Example 65] | – | 0.001 to 0.02 µM
C=C[C@@H]1C[C@]1(NC(=O)[C@@H]1C[C@@H](Oc2ncc(OC)c3ccc(Cl)cc23)CN1C(=O)[C@@H](Nc1nc(-c2cc(F)cc(F)c2)cs1)C(C)(C)C)C(=O)NS(=O)(=O)C1CC1 [Example 66] | – | 0.001 to 0.02 µM
C=C[C@@H]1C[C@]1(NC(=O)[C@@H]1C[C@@H](Oc2ncc(OC)c3ccc(Cl)cc23)CN1C(=O)[C@@H](Nc1nc(-c2ccccc2OC(F)(F)F)cs1)C(C)(C)C)C(=O)NS(=O)(=O)C1CC1 [Example 67] | – | 0.02 to 0.2 µM
C=C[C@@H]1C[C@]1(NC(=O)[C@@H]1C[C@@H](Oc2ncc(OC)c3ccc(Cl)cc23)CN1C(=O)[C@@H](Nc1nc(-c2cc(C(F)(F)F)ccc2Cl)cs1)C(C)(C)C)C(=O)NS(=O)(=O)C1CC1 [Example 69] | – | 0.001 to 0.02 µM
C=C[C@@H]1C[C@]1(NC(=O)[C@@H]1C[C@@H](Oc2ncc(OC)c3ccc(Cl)cc23)CN1C(=O)[C@@H](Nc1nc(-c2ccc(C(F)(F)F)cc2C(F)(F)F)cs1)C(C)(C)C)C(=O)NS(=O)(=O)C1CC1 [Example 70] | 0.089 µM | –
C=C[C@@H]1C[C@]1(NC(=O)[C@@H]1C[C@@H](Oc2ncc(OC)c3ccc(Cl)cc23)CN1C(=O)[C@@H](Nc1nc(-c2c(F)cccc2C(F)(F)F)cs1)C(C)(C)C)C(=O)NS(=O)(=O)C1CC1 [Example 71] | – | 0.02 to 0.2 µM
C=C[C@@H]1C[C@]1(NC(=O)[C@@H]1C[C@@H](Oc2ncc(OC)c3ccc(Cl)cc23)CN1C(=O)[C@@H](Nc1nc(-c2cccc(C(F)(F)F)c2F)cs1)C(C)(C)C)C(=O)NS(=O)(=O)C1CC1 [Example 72] | – | 0.001 to 0.02 µM
C=C[C@@H]1C[C@]1(NC(=O)[C@@H]1C[C@@H](Oc2ccc(OC)c3ccc(Cl)cc23)CN1C(=O)[C@@H](Nc1nc(-c2ccc(C(F)(F)F)cc2F)cs1)C(C)(C)C)C(=O)NS(=O)(=O)C1CC1 [Example 73] | – | 0.001 to 0.02 µM
C=C[C@@H]1C[C@]1(NC(=O)[C@@H]1C[C@@H](Oc2ccc(OC)c3ccc(Cl)cc23)CN1C(=O)[C@@H](Nc1nc(-c2ccc(F)c(C(F)(F)F)c2)cs1)C(C)(C)C)C(=O)NS(=O)(=O)C1CC1 [Example 74] | 0.002 µM | –
C=C[C@@H]1C[C@]1(NC(=O)[C@@H]1C[C@@H](Oc2ncc(OC)c3ccc(Cl)cc23)CN1C(=O)[C@@H](Nc1nc(-c2ccc(C(F)(F)F)c(F)c2)cs1)C(C)(C)C)C(=O)NS(=O)(=O)C1CC1 [Example 75] | – | 0.001 to 0.02 µM
C=C[C@@H]1C[C@]1(NC(=O)[C@@H]1C[C@@H](Oc2ncc(OC)c3ccc(Cl)cc23)CN1C(=O)[C@@H](Nc1nc(-c2cc(Cl)ccc2Cl)cs1)C(C)(C)C)C(=O)NS(=O)(=O)C1CC1 [Example 76] | – | 0.001 to 0.02 µM
C=C[C@@H]1C[C@]1(NC(=O)[C@@H]1C[C@@H](Oc2ncc(OC)c3ccc(Cl)cc23)CN1C(=O)[C@@H](Nc1nc(-c2ccc(OC)c(OC)c2)cs1)C(C)(C)C)C(=O)NS(=O)(=O)C1CC1 [Example 77] | – | 0.001 to 0.02 µM
C=C[C@@H]1C[C@]1(NC(=O)[C@@H]1C[C@@H](Oc2ncc(OC)c3ccc(Cl)cc23)CN1C(=O)[C@@H](Nc1nc(-c2cc(C)ccc2OC(F)F)cs1)C(C)(C)C)C(=O)NS(=O)(=O)C1CC1 [Example 78] | – | 0.001 to 0.02 µM
C=C[C@@H]1C[C@]1(NC(=O)[C@@H]1C[C@@H](Oc2ncc(OC)c3ccc(Cl)cc23)CN1C(=O)[C@@H](Nc1nc(-c2cc(F)c(F)c(F)c2)cs1)C(C)(C)C)C(=O)NS(=O)(=O)C1CC1 [Example 79] | – | 0.001 to 0.02 µM
C=C[C@@H]1C[C@]1(NC(=O)[C@@H]1C[C@@H](Oc2ncc(OC)c3ccc(Cl)cc23)CN1C(=O)[C@@H](Nc1nc(-c2cccc(F)c2F)cs1)C(C)(C)C)C(=O)NS(=O)(=O)C1CC1 [Example 80] | – | 0.001 to 0.02 µM
C=C[C@@H]1C[C@]1(NC(=O)[C@@H]1C[C@@H](Oc2ncc(OC)c3ccc(Cl)cc23)CN1C(=O)[C@@H](Nc1nc(-c2cc(F)c(F)cc2F)cs1)C(C)(C)C)C(=O)NS(=O)(=O)C1CC1 [Example 81] | – | 0.001 to 0.02 µM
C=C[C@@H]1C[C@]1(NC(=O)[C@@H]1C[C@@H](Oc2ncc(OC)c3ccc(Cl)cc23)CN1C(=O)[C@@H](Nc1nc(-c2ccc(F)cc2F)c(C)s1)C(C)(C)C)C(=O)NS(=O)(=O)C1CC1 [Example 82] | – | 0.001 to 0.02 µM
C=C[C@@H]1C[C@]1(NC(=O)[C@@H]1C[C@@H](Oc2ncc(OC)c3ccc(Cl)cc23)CN1C(=O)[C@@H](Nc1nc(-c2c(F)cccc2F)cs1)C(C)(C)C)C(=O)NS(=O)(=O)C1CC1 [Example 83] | – | 0.001 to 0.02 µM
C=C[C@@H]1C[C@]1(NC(=O)[C@@H]1C[C@@H](Oc2ncc(OC)c3ccc(Cl)cc23)CN1C(=O)[C@@H](Nc1nc(-c2sc3ccccc3c2C)cs1)C(C)(C)C)C(=O)NS(=O)(=O)C1CC1 [Example 84] | – | 0.001 to 0.02 µM
C=C[C@@H]1C[C@]1(NC(=O)[C@@H]1C[C@@H](Oc2ncc(OC)c3ccc(Cl)cc23)CN1C(=O)[C@@H](Nc1nc(-c2cc(-c3ccc(Cl)cc3Cl)no2)cs1)C(C)(C)C)C(=O)NS(=O)(=O)C1CC1 [Example 86] | 0.002 µM | –
C=C[C@@H]1C[C@]1(NC(=O)[C@@H]1C[C@@H](Oc2ncc(OC)c3ccc(Cl)cc23)CN1C(=O)[C@@H](Nc1nc(-c2cc3ccccc3o2)cs1)C(C)(C)C)C(=O)NS(=O)(=O)C1CC1 [Example 87] | – | 0.001 to 0.02 µM
C=C[C@@H]1C[C@]1(NC(=O)[C@@H]1C[C@@H](Oc2ncc(OC)c3ccc(Cl)cc23)CN1C(=O)[C@@H](Nc1nc(-c2cc(-c3ccc(Cl)cc3)no2)cs1)C(C)(C)C)C(=O)NS(=O)(=O)C1CC1 [Example 88] | – | 0.001 to 0.02 µM

— US8163921B2, “Hepatitis C virus inhibitors” (Bristol-Myers Squibb Company, priority 2008, dated 2012)
